Source: patent US8748130B2, “Human papillomavirus / Ii-Key hybrids and methods of use” (priority 2008, dated 2014)

Tested on: HPV11-specific CTL activity
Assay: In vivo CTL assay (CFSE-labelled target cells) after co-immunization with CTL epitope HPV11
Parameters: species or system HLA-DR4-tg mice
Conditions: 3 weeks
Description: HLA-DR4-tg mice were immunized with no peptide (A); 60 nmole of HPV11 (HPV16 E7 (49-57) an H-2D^b-restricted CTL epitope) (B); 60 nmole of HPV11 plus 15 nmole HPV4 hybrid (C); 60 nmole of HPV11 plus 30 nmole HPV4 hybrid (D); or 60 nmole of HPV11 plus 60 nmole HPV4 hybrid (E). Peptides were mixed with 20 μg of CpG and then emulsified in an equal volume of IFA in a total volume of 150 μl/mouse. Three weeks after immunization, HPV11-specific CTL activity was measured in an in vivo assay whereby the cells were incubated with either the immunizing peptide (HPV11) and a high concentration of CFSE or no peptide and a low concentration of CFSE. Equal numbers of the two cell populations were mixed and injected by tail vein into mice. The top figure indicates the percentage of HPV11-specific CTL killing as determined by the ratio of CFSE^low to CFSE^high cells using the formula 1—CFSE^low/CFSE^high following flowcytometry. The histograms for each group are shown below. The data shown are from pooled splenocytes (2 mice per group).
HLA-DR4-tg mice were immunized with no peptide (A); 60 nmole of HPV11 (HPV16 E7 (49-57), an H-2D^b-restricted CTL epitope) (B); 30 nmole HPV1 plus 60 nmole HPV11 (C); or 30 nmole HPV4 plus 60 nmole HPV11. The peptides were administered as indicated for FIG. 3. Three weeks after immunization, HPV11-specific CTL activity was measured in an in vivo assay (see FIG. 3). […]

rahynivtf (RAHYNIVTF; Human papillomavirus type 16) [HPV11]
HPV11-specific CTL killing (%) (Table 5: 60 nmole HPV11 alone, CpG + IFA, pooled splenocytes (2 mice per group)): 19%
HPV11-specific CTL activity (%) (Table 6: 60 nmole HPV11 alone or with 30 nmole HPV1 or HPV4, CpG + IFA, pooled splenic cells): 14%
